Results reported in US20050106141A1, “Hairless protein-interacting partner complexes and methods thereof for the beautification and/or improvement of mammalian skin” (The Procter & Gamble Company, priority 2003, published 2005).
Where two headings read alike, the source gives them in different places.

Columns and labels:
[1] = system: LXR; details: oral administration, mice; cited from earlier work
[2] = system: LXR; details: oral administration, hamsters; cited from earlier work
[3] = target: T1, BD-VDR><AD-TRβ interaction (Mus musculus, UniProt P48281); test: Yeast two-hybrid alpha-galactosidase reporter assay, BD-VDR interaction with AD-TRβ; type: cell-based; details: assay of example 3
T1 construct: expressed in transfected cells; host or cells: yeast
T1 sequence (P48281 1-422): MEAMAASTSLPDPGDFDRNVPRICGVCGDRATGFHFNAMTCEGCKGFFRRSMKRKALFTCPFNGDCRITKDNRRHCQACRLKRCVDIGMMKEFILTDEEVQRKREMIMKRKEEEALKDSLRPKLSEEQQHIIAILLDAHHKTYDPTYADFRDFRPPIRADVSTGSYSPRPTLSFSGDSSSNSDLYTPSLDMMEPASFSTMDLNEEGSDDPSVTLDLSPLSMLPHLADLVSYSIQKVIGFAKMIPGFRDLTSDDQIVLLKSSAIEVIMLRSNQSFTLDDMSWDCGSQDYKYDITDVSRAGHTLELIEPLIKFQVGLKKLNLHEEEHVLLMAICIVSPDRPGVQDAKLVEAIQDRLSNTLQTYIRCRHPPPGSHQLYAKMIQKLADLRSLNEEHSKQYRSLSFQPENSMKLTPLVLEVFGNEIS
T1 sequence (P10828 1-461 partner): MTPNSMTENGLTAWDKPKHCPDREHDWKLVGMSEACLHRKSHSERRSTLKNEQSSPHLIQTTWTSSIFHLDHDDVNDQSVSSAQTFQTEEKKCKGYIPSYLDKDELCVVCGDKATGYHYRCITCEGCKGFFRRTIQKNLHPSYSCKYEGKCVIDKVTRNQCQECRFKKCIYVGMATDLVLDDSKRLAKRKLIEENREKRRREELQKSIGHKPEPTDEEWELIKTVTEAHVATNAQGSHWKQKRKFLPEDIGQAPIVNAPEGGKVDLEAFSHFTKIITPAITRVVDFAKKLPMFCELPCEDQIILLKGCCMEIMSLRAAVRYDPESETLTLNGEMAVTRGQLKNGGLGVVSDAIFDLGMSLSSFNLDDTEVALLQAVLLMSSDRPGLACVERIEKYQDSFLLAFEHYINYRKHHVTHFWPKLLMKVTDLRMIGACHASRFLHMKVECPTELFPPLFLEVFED
Description: Increase or decrease in alpha-galactosidase activity of AH109 (BD-HRt><AD-IP) strain grown in Leu, Trp, His TDO in the presence of various test compounds is used to screen for agonists or antagonists of BD-HRt><AD-IP interaction. A diverse library of compounds is screened.
Microtiter plates with TDO media seeded with freshly cultured yeast cells at 0.05 optical density at 650 nm (OD650) are treated with various test compounds at 100-400 uM or vehicle (DMSO) control. Stock solutions of test compounds at 10-20 mM are made in DMSO and tested at 100-400 μM final concentration. The final assay mixture comprising of cells, TDO and compound (or DMSO alone) is adjusted to be 100 ul and the amount of DMSO is maintained at or below 2%. The plates are incubated for 3-4 days without shaking at 25° C. Plates are briefly agitated to obtain uniform suspension of cells prior to addition of assay buffer. […] Plates are briefly agitated to obtain uniform suspension of cells and absorbance at both 650 nM (OD650)ref and 410 nm (OD410)ref are measured. […] For color development 100 ul of 0.1 M sodium carbonate solution is added and after standing for at least 1 minute, OD410exp is measured.

| SMILES | plasma phospholipid levels [1] | plasma triglyceride levels [1] | plasma phospholipid levels [2] | plasma triglyceride levels [2] | enhancement of BD-VDR / AD-TRβ interaction [3] |
| --- | --- | --- | --- | --- | --- |
| O=S(=O)(c1ccccc1)N(CC(F)(F)F)c1ccc(C(O)(C(F)(F)F)C(F)(F)F)cc1 [T0901317] | increased | increased | increased | increased |  |
| C=C1CC[C@H](O)C/C1=C/C=C1\CCC[C@]2(C)[C@@H]([C@H](C)CCCC(C)(C)O)CC[C@@H]12 [25 HC, 25-hydroxy cholecalciferol] |  |  |  |  | approximately 2 fold |
